This is an account of results in US20090124651A1, “CATECHOLAMINE DERIVATIVES AND PRODRUGS THEREOF” (H. LUNDBECK A/S, priority 2007, published 2009).

One series has as its system motility deficits. Kind of series: Superiority model: mouse model of severe dopamine depletion. The series is classed as in vivo. An excerpt:
Both Apomorphine and L-DOPA stimulate D1 and D2-like dopamine receptors.

For series [1] the following is noted: man, oral dosing; cited from earlier work.
A further series relates to Parkinson's disease. The conditions noted are these: PD patients, intravenous (IV); cited from earlier work.

For the compound `N[C@@H](Cc1ccc(O)c(O)c1)C(=O)O` [L-DOPA, (levo)-3,4-dihydroxy phenylalanine], the “reversal of motility deficits / restoration of locomotion” value in the series on motility deficits is “able to reverse motility deficits”. With `CCCc1cc2c(s1)CN[C@@H]1CCc3cc(OC(C)=O)c(OC(C)=O)cc3[C@@H]21` [Adrogolide], the oral bioavailability in series [1] is reported as roughly 4%. Also, the antiparkinson efficacy entry in the series on Parkinson's disease is “comparable to that of L-DOPA”. In the case of `CN1CCc2cccc3c2[C@H]1Cc1ccc(O)c(O)c1-3` [Apomorphine], the “reversal of motility deficits / restoration of locomotion” value with motility deficits is on record as “able to reverse motility deficits”.
